In patent US20230040909A1 (priority 2019, published 2023):
≈ marks a conversion by molar mass, not a printed value. Like-named read-outs stand apart in the source and are kept apart here.

Assays:
Mycobacterium abscessus = experiment: M. ab_ATCC MIC MHII; type: cell-based; settings: Mycobacteroides abscessus; read-out: M. ab_ATCC: MIC MHII: MIC
From the text: The procedure described in Franz 2017 was used to generate the data shown in column 5 of Table 4.

M. tb H37Rv [1] = experiment: microbe, parasite or virus in culture; type: cell-based, Mycobacterium tuberculosis; settings: Mycobacterium tuberculosis, H37RV; read-out: M. tb H37Rv: MIC-MABA
M. tb H37Rv [2] = experiment: microbe, parasite or virus in culture; type: cell-based; settings: Mycobacterium tuberculosis; for MIC: read-out: M. tb H37Rv: MIC-LORA; for inhibition at 20 µg/mL: at 20 μg/mL, read-out: M. tb H37Rv: MIC-LORA: Comment (% inhibition)
VERO cell cytotoxicity = type: cell-based; settings: African green monkey, VERO cells
From the text: The procedures described in Falzari 2005 were used to generate the data shown in column 2 of Table 4.

Row | SMILES | MIC (Mycobacterium abscessus) [µg/mL] | MIC (M. tb H37Rv [1]) [µg/mL] | MIC (M. tb H37Rv [2]) [µg/mL] | IC50 (VERO cell cytotoxicity) [µg/mL] | inhibition at 20 µg/mL (M. tb H37Rv [2]) [%]
1 | Cc1cc(C)c2cc(C(=O)NC3CC[Si](C)(C)C3)[nH]c2c1 (racemic) [MPL-296, N-(1,1-dimethylsilolan-3-yl)-4,6-dimethyl-1H-indole-2-carboxamide] | 0.062 (≈ 0.206 µM) | 0.0151 (≈ 0.0503 µM) | 2.3 (≈ 7.65 µM) | 13.8 (≈ 45.9 µM) | –
2 | C[Si]1(C)CCC(NC(=O)c2cc3c(Cl)cc(Cl)cc3[nH]2)C1 (racemic) [MPL-399, 4,6-dichloro-N-(1,1-dimethylsilolan-3-yl)-1H-indole-2-carboxamide] | 0.062 (≈ 0.182 µM) | < 0.004 | 7.81 (≈ 22.9 µM) | > 20 | –
3 | C[Si]1(C)CC[C@@H](NC(=O)c2cc3c(Cl)cc(Cl)cc3[nH]2)C1 (single isomer, unassigned) [MPL-399A] | 0.125 (≈ 0.366 µM) | 0.03 (≈ 0.0879 µM) | – | > 64 | –
4 | C[Si]1(C)CC[C@H](NC(=O)c2cc3c(Cl)cc(Cl)cc3[nH]2)C1 (single isomer, unassigned) [MPL-399B] | 0.125 (≈ 0.366 µM) | 0.003 (≈ 0.00879 µM) | – | 52 (≈ 152 µM) | –
5 | COc1cc(F)cc2[nH]c(C(=O)NC3CC[Si](C)(C)CC3)cc12 [MPL-196, N-(1,1-dimethylsilinan-4-yl)-6-fluoro-4-methoxy-1H-indole-2-carboxamide] | > 64 | 0.0048 (≈ 0.0144 µM) | > 32 | > 32 | –
6 | O=C(NC1CC[Si]2(CCCC2)CC1)c1cc2c(F)cc(F)cc2[nH]1 [MPL-251, 4,6-difluoro-N-(5-silaspiro[4.5]decan-8-yl)-1H-indole-2-carboxamide] | > 64 | 0.0043 (≈ 0.0123 µM) | 7 (≈ 20.1 µM) | > 20 | –
7 | O=C(NC1CC[Si]2(CCCC2)CC1)c1cc2c(Cl)cc(Cl)cc2[nH]1 [MPL-252, 4,6-dichloro-N-(5-silaspiro[4.5]decan-8-yl)-1H-indole-2-carboxamide] | 64 (≈ 168 µM) | 0.014 (≈ 0.0367 µM) | – | > 20 | –
8 | O=C(NC1CC[Si]2(CCCCC2)CC1)c1cc2c(F)cc(F)cc2[nH]1 [MPL-256, 4,6-difluoro-N-(6-silaspiro[5.5]undecan-3-yl)-1H-indole-2-carboxamide] | > 64 | 0.0041 (≈ 0.0113 µM) | 3.4 (≈ 9.38 µM) | > 20 | –
9 | O=C(NC1CC[Si]2(CCCCC2)CC1)c1cc2c(Cl)cc(Cl)cc2[nH]1 [MPL-257, 4,6-dichloro-N-(6-silaspiro[5.5]undecan-3-yl)-1H-indole-2-carboxamide] | > 64 | 0.0045 (≈ 0.0114 µM) | > 20 | – | 68
10 | Cc1cc(C)c2cc(C(=O)NC3CCC[Si](C)(C)CC3)[nH]c2c1 (centres unmarked) [MPL-262, N-(1,1-dimethylsilepan-4-yl)-4,6-dimethyl-1H-indole-2-carboxamide] | 0.5 (≈ 1.52 µM) | 0.009 (≈ 0.0274 µM) | 16 (≈ 48.7 µM) | – | –
11 | Cc1cc(C)c2cc(C(=O)NC3CC[Si]4(CCCC4)CC3)[nH]c2c1 [MPL-264, 4,6-dimethyl-N-(5-silaspiro[4.5]decan-8-yl)-1H-indole-2-carboxamide] | 64 (≈ 188 µM) | 0.011 (≈ 0.0323 µM) | > 20 | > 20 | 85
12 | Cc1cc(C)c2cc(C(=O)NC3CC[Si]4(CCCCC4)CC3)[nH]c2c1 [MPL-265, 4,6-dimethyl-N-(6-silaspiro[5.5]undecan-3-yl)-1H-indole-2-carboxamide] | > 64 | 0.014 (≈ 0.0395 µM) | > 20 | > 20 | 84
13 | C[Si]1(C)CCCC(NC(=O)c2cc3c(F)cc(F)cc3[nH]2)CC1 (centres unmarked) [MPL-286, N-(1,1-dimethylsilepan-4-yl)-4,6-difluoro-1H-indole-2-carboxamide] | > 64 | 0.0044 (≈ 0.0131 µM) | 7.9 (≈ 23.5 µM) | > 20 | –
14 | Cc1cc(C)c2cc(C(=O)NC3CCC[Si](C)(C)CCC3)[nH]c2c1 [MPL-303, N-(1,1-dimethylsilocan-5-yl)-4,6-dimethyl-1H-indole-2-carboxamide] | 4 (≈ 11.7 µM) | < 0.004 | 4.23 (≈ 12.3 µM) | > 20 | –
15 | Cc1cc(C)c2cc(C(=O)NC3CC[Si](C)(C)CC3)[nH]c2c1 [MPL-317, N-(1,1-dimethylsilinan-4-yl)-4,6-dimethyl-1H-indole-2-carboxamide] | 0.062 (≈ 0.197 µM) | 0.031 (≈ 0.0986 µM) | > 20 | > 20 | –
16 | C[Si]1(C)CCCC(NC(=O)c2cc3c(C(F)(F)F)cc(C(F)(F)F)cc3[nH]2)CC1 (centres unmarked) [MPL-324, N-(1,1-dimethylsilepan-4-yl)-4,6-bis(trifluoromethyl)-1H-indole-2-carboxamide] | > 64 | 0.0154 (≈ 0.0353 µM) | > 20 | > 20 | –
